Our source for the IC50 values is patent publication US20240116985A1, “STAPLED PEPTIDES AND METHODS THEREOF” (priority 2020, published 2024).

For this experiment, the target named is T1, full-length beta-Catenin (Uniprot ID P35222) (Homo sapiens, UniProt P35222).
T1 construct: 10 nM full-length beta-Catenin (Uniprot ID P35222)
T1 sequence (P35222 1-781): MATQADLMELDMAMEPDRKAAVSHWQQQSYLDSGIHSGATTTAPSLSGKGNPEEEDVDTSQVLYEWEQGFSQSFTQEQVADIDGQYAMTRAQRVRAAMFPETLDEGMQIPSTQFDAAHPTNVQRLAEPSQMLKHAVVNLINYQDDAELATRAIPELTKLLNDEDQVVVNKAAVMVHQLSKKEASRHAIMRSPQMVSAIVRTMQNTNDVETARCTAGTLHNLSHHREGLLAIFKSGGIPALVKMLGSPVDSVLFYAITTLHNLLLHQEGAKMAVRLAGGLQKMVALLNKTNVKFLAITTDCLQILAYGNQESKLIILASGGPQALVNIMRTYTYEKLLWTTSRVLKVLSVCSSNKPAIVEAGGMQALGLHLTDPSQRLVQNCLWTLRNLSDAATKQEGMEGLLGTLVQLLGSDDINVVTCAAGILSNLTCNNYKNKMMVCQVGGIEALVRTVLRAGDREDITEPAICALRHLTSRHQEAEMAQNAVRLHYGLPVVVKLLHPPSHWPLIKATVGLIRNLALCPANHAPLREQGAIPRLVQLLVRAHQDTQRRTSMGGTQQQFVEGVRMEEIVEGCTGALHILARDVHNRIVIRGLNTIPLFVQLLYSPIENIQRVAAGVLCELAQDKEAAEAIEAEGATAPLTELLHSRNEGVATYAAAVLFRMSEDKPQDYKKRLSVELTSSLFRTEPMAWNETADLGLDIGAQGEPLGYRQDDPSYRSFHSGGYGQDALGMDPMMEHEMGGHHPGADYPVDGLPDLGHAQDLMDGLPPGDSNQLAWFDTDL
Put plainly: Fluorescence polarization IC50 (beta-catenin / 5FAM-TCF4 10-53 competition). The experiment is classed as binding. The settings on record: fluorescence polarization; read-out: beta-Catenin FP IC50. Background: Polarisation of emitted light reports the rotation of a fluorescent probe.
A word on the IC50: it is the concentration that gives 50% inhibition. Take `CC(=O)N1CCC[C@]12CC=CCCCC1(CCCC=CCCCOC(=O)N3CC[C@@](C(=O)N[C@@H](Cc4ccccc4)C(=O)N[C@@H](Cc4csc5ccccc45)C(=O)N[C@@H](CCC(N)=O)C(N)=O)(C3)NC(=O)[C@H]([C@@H](C)O)NC(=O)[C@H](Cc3ccccc3)NC(=O)[C@H](C)NC(=O)[C@H](C)NC(=O)[C@H](Cc3c[nH]cn3)NC(=O)[C@H](CC(=O)O)NC1=O)NC(=O)[C@H](CC(C)(C)C)NC(=O)[C@H](CCO)NC2=O` (stereo partly drawn) [I-2438, Ac-PL3-Hse-Npg-B5-Asp-His-Ala-Ala-Phe-Thr-PyrS2-Phe-BztA-Gln-NH2]: the concentration for half-maximal inhibition (IC50) came out at 1.76 µM.

As for `CC(=O)N1CCC[C@]12CC=CCCCC1(CCCC=CCCCOC(=O)N3CC[C@@](C(=O)N[C@@H](Cc4ccccc4)C(=O)N[C@@H](Cc4csc5ccccc45)C(=O)N[C@@H](CCC(N)=O)C(N)=O)(C3)NC(=O)[C@H](Cc3c[nH]cn3)NC(=O)[C@H](Cc3ccccc3)NC(=O)[C@H](C)NC(=O)[C@H](C)NC(=O)[C@H](CCC(N)=O)NC(=O)[C@H](CC(=O)O)NC1=O)NC(=O)[C@H](CC(C)(C)C)NC(=O)[C@H](CCO)NC2=O` (stereo partly drawn) [I-2439, Ac-PL3-Hse-Npg-B5-Asp-Gln-Ala-Ala-Phe-His-PyrS2-Phe-BztA-Gln-NH2], the concentration for half-maximal inhibition (IC50) worked out at 2.76 µM.

Regarding `CC(=O)N1CCC[C@]12CC=CCCCC1(CCCC=CCCCOC(=O)N3CC[C@@](C(=O)N[C@@H](Cc4ccccc4)C(=O)N[C@@H](Cc4csc5ccccc45)C(=O)N[C@@H](CCC(N)=O)C(N)=O)(C3)NC(=O)[C@H](Cc3c[nH]cn3)NC(=O)[C@H](Cc3ccccc3)NC(=O)[C@H](C)NC(=O)[C@H](C)NC(=O)[C@H](CCC(N)=O)NC(=O)[C@H](CC(=O)O)NC1=O)NC(=O)[C@H](CC(C)(C)C)NC(=O)[C@H](CC(N)=O)NC2=O` (stereo partly drawn) [I-2440, Ac-PL3-Asn-Npg-B5-Asp-Gln-Ala-Ala-Phe-His-PyrS2-Phe-BztA-Gln-NH2], the half-inhibitory concentration (IC50) was 0.36 µM.

On to `CC(=O)N1CCC[C@]12CC=CCCCC1(CCCC=CCCCOC(=O)N3CC[C@@](C(=O)N[C@@H](Cc4ccccc4)C(=O)N[C@@H](Cc4csc5ccccc45)C(=O)N[C@@H](CCC(N)=O)C(N)=O)(C3)NC(=O)[C@H](CC(C)C)NC(=O)[C@H](Cc3ccccc3)NC(=O)[C@H](C)NC(=O)[C@H](C)NC(=O)[C@H](Cc3c[nH]cn3)NC(=O)[C@H](CC(=O)O)NC1=O)NC(=O)[C@H](CC(C)(C)C)NC(=O)[C@H](CC(N)=O)NC2=O` (stereo partly drawn) [I-2442, Ac-PL3-Asn-Npg-B5-Asp-His-Ala-Ala-Phe-Leu-PyrS2-Phe-BztA-Gln-NH2], for which the IC50 was determined as 0.282 µM.

For the compound `CC(=O)N1CCC[C@]12CC=CCCCC1(CCCC=CCCCOC(=O)N3CC[C@@](C(=O)N[C@@H](Cc4ccccc4)C(=O)N[C@@H](Cc4csc5ccccc45)C(=O)N[C@@H](CCC(N)=O)C(N)=O)(C3)NC(=O)[C@H](CC(C)C)NC(=O)[C@H](Cc3ccccc3)NC(=O)[C@H](C)NC(=O)[C@H](C)NC(=O)[C@H](CCC(N)=O)NC(=O)[C@H](CC(=O)O)NC1=O)NC(=O)[C@H](CC(C)(C)C)NC(=O)[C@H](CCO)NC2=O` (stereo partly drawn) [I-2443, Ac-PL3-Hse-Npg-B5-Asp-Gln-Ala-Ala-Phe-Leu-PyrS2-Phe-BztA-Gln-NH2], the IC50 was found to be 6.67 µM.

Turning to `CCCc1cn(CCCC[C@@H](NC(=O)[C@H](CO)NC(=O)[C@H](Cc2csc3ccccc23)NC(=O)[C@H](Cc2ccccc2C(F)(F)F)NC(=O)[C@]23CCN(C2)C(=O)OCCCC=CCCCC2(CCCC=CC[C@]4(CCCN4C(C)=O)C(=O)N[C@@H](CC(=O)O)C(=O)N[C@@H](CC(C)(C)C)C(=O)N2)C(=O)N[C@@H](CC(=O)O)C(=O)N[C@@H](Cc2cccc(C(=O)O)c2)C(=O)N[C@@H](C)C(=O)N[C@@H](C)C(=O)N[C@@H](Cc2ccccc2)C(=O)N[C@@H](CC(C)C)C(=O)N3)C(N)=O)nn1` (stereo partly drawn) [I-2444, Ac-PL3-Asp-Npg-B5-Asp-3COOHF-Ala-Ala-Phe-Leu-PyrS2-2F3MeF-BztA-Ser-[3C]TriAzdLys-NH2], the IC50 came to 0.121 µM.
